From US9593103B2, “Pyridyl hydrazones for the treatment of tuberculosis and related diseases” (TECNIMEDE SOCIEDADE TECNICO-MEDICINAL S.A., priority 2012, dated 2017)

Test system: Mycobacterium smegmatis
Experiment: In vitro Mycobacterium smegmatis growth inhibition assay (suspension turbidity, 96 hours)
Assay type: cell-based
Settings: for % of Celular Growth at 96 hours: Mycobacterium smegmatis; for inhibitory activity against Mycobacterium smegmatis growth (in words, compared with RMP): compared with the active control RMP; for IC50: concentration to inhibit 50% of Mycobacterium smegmatis growth, four parameter curve fit

Molecule	% of Celular Growth at 96 hours (concentration 1.23 μM) [%]	% of Celular Growth at 96 hours (concentration 3.70 μM) [%]	% of Celular Growth at 96 hours (concentration 11.11 μM) [%]	% of Celular Growth at 96 hours (concentration 33.33 μM) [%]	% of Celular Growth at 96 hours (concentration 100.00 μM) [%]	inhibitory activity against Mycobacterium smegmatis growth (in words, compared with RMP)	inhibitory activity against Mycobacterium smegmatis growth (in words, compared with RMP) (listed as N-pyridin-2-yl-N′-5-bromo-2-hydroxyphenylmethylene-hydrazine)	IC50 [µM]	inhibitory activity against Mycobacterium smegmatis growth (in words, compared with RMP) (listed as compound 42)	IC50 (Mycolicibacterium smegmatis) [µM]	inhibitory activity against Mycobacterium smegmatis growth (in words, compared with RMP) (listed as N-pyridin-2-yl-N′-5-methyl-2-hydroxyphenylmethylene-hydrazine)
Oc1ccc(Br)cc1C=NNc1ccccn1 [Compound 70, 5-bromo-2-hydroxybenzaldehyde-2pyridinilhydrazone]	95.9	96.6	80.0	44.2	38.9	better IC50 values than RMP	desired pharmacological activity	13.9			
3,5-dibromo-2-hydroxybenzaldehyde (2-pyridinyl)hydrazine [Compound 42]	110.06	104.48	98.17	41.52	31.91	better IC50 values than RMP		15.2	superior inhibitory activity against Mycobacterium smegmatis than the prior art compound RMP		
CO[C@H]1/C=C/O[C@@]2(C)Oc3c(C)c(O)c4c(O)c(c(/C=N/N5CCN(C)CC5)c(O)c4c3C2=O)NC(=O)/C(C)=C\C=C\[C@H](C)[C@H](O)[C@@H](C)[C@@H](O)[C@@H](C)[C@H](OC(C)=O)[C@@H]1C [Rifampicin, reference compound]	82.55	81.40	90.62	58.04	22.26					24.8	
C(=NNc1ccccn1)c1cccs1 [N-pyridin-2-yl-N′-thiophen-2-ylmethylene-hydrazine]						desired pharmacological activity					
2-hydroxy-5-methylbenzaldehyde-(2-pyridinyl)hydrazine [Compound 61]	75.35	69.76	83.84	20.08	24.45	better IC50 values than RMP		13.5			desired pharmacological activity
